pKi: −log10 of the molar value.

T1 sequence (P41597 whole entry): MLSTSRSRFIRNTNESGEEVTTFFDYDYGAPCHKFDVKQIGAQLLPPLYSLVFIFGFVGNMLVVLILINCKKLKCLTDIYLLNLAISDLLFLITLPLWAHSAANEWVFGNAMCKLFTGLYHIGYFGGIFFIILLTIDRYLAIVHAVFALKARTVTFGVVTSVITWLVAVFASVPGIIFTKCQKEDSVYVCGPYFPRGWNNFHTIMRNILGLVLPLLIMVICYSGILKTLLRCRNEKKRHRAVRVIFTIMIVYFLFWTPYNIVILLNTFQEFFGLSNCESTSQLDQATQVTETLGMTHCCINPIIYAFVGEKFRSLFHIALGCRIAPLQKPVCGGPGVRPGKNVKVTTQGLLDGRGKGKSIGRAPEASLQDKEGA

This assay addresses T1, CCR2 (Homo sapiens, UniProt P41597).
T1 construct: Membranes were prepared from THP-1 cells; endogenous in cells; host or cells: THP-1 (human acute monocytic leukaemia cells), membrane preparation
The assay is described as follows: CCR2 receptor membrane binding assay ([125I]MCP-1, THP-1 membranes, SPA beads). The settings on record: THP-1 cell membranes, [125I]MCP-1 displacement, bound radioactivity after 8 h; read-out: hKi. Here is the method:
The above exemplary substances have been tested for binding to CCR2 using a binding assay as outlined herein below:
THP-1 cells (human acute monocytic leukaemia cells) were cultured under standardized conditions at 37° C. and 5% CO2 in a humidified incubator. THP-1 cells were cultivated in RPMI 1640 medium (Gibco 21875) containing 1% MEM-NEAA (Gibco 11140) 2 mM L-glutamine, 1.5 g/L sodium bicarbonate, 4.5 g/L glucose, 10 mM HEPES and 1.0 mM sodium pyruvate, 90%; 10% fetal calf serum (FCS Gibco 10500-064). Membranes were prepared from THP-1 cells. THP-1 cells were centrifuged at 300×g at 4° C. for 10 min. The cell pellet was resuspendet in Phosphate Buffer Saline (PBS, including 10 μM Pefabloc and a protease inhibitor mix ‘complete’, Boehringer Mannheim (1 tablet/50 ml)), to a concentration of […]. The membrane preparation was performed by disrupting the cells by nitrogen […] (at 50 bar, for 1 h) in a “Nitrogen Bombe” (Parr Instrument). Cell debris was removed by centrifugation (800×g at 4° C., 1 min). The supernatant was centrifuged at 80000×g, 4° C. for 30 min to sediment the cell membranes. Usually 50 mg of protein (Bradford assay) were yielded from 1×10E9 cells. The membranes were resuspendet in 25 mM HEPES, 25 mM MgCl2, 1 mM CaCl2, 10% Glycerine for storage in aliquots at −80° C. in 25 mM HEPES, 25 mM MgCl2, 1 mM CaCl2, 10% Glycerine and stored at −80° C.
Perkin Elmer NEX 332 Jod 125 MCP-1, Stock: 2200 Ci/mmol solved in 2000 μl assay buffer, stored at −20° C. THP-1 membrane were adjusted with 25 mM HEPES, pH 7.2; 5 mM MgCl2; 0.5 mM CaCl2; 0.2% BSA assay buffer to a concentration of 2.5 μg/15 Amersham Biosciences PVT-WGA Beads (RPNQ0001) were adjusted with assay buffer to a concentration of 0.24 mg/30 μl. For preparation of the membrane-bead-suspension membranes and beads were incubated for 30 min at RT under rotation (60 rpm) with a ratio of 1:2. Test compounds dissolved in 100% DMSO to a concentration of 10 mM and are further diluted with 100% DMSO to 1 mM. All additional compound dilutions were obtained with assay buffer, final 1% DMSO. Compounds, membrane-bead-suspension and [125I]MCP-1 (ca. 25000 cpm/10 μl) were incubated. Bound radioactivity was determined by scintillation counter after 8 h. Determination of affinity of test compounds (dissociation constant hKi) is calculated by iterative fitting of experimental data using the “easy sys” program, which is based on law of mass action (Schittkowski K. (1994), Numerische Mathematik, Vol. 68, 129-142).
`CO[C@H]1COCC[C@H]1NC1CCN(C(=O)c2cncc(NC[C@H]3CCC[C@@H](c4ccc(OC(F)(F)F)cc4)O3)c2C)CC1` [Example 4]: the pKi is 8.70.

Turning to `CO[C@@H]1COCC[C@@H]1NC1CCN(C(=O)c2cncc(NC[C@H]3CCC[C@@H](c4ccc(C(F)(F)F)cc4)O3)c2)CC1` [Example 9], the pKi is 7.57.

For the compound `CO[C@@H]1COCC[C@@H]1NC1CCN(C(=O)c2cncc(NCc3ccc(Cl)c(F)c3)c2C)CC1` [Example 6c], the pKi was 6.88.

In the case of `CO[C@@H]1COCC[C@@H]1NC1CCN(C(=O)c2cncc(NCc3ccc(C(F)(F)F)c(Cl)c3)c2C)CC1` [Example 6d], the pKi is 7.14.

For the compound `CO[C@H]1COCC[C@H]1NC1CCN(C(=O)c2cncc(Nc3ccc(Cl)c(Cl)c3)c2C)CC1` [Example 6b], the pKi was 7.07.

In the case of `CO[C@@H]1COCC[C@@H]1NC1CCN(C(=O)c2cncc(NC[C@H]3CCC[C@@H](c4ccc(OC(F)(F)F)cc4)O3)c2C)CC1` [Example 5], the pKi is 9.00.

Turning to `CO[C@H]1COCC[C@H]1NC1CCN(C(=O)c2cncc(NC[C@H]3CCC[C@@H](c4ccc(C(F)(F)F)cc4)O3)c2)CC1` [Example 7], the pKi is 7.40.

On to `O=C(c1cncc(NC[C@H]2CCC[C@@H](c3ccc(C(F)(F)F)cc3)O2)c1)N1CCC(NC2CCOCC2F)CC1` (some centres unmarked) [Example 8], for which the pKi was 7.00.

With `CO[C@H]1COCC[C@H]1NC1CCN(C(=O)c2cncc(NC[C@H]3CCC[C@@H](c4ccc(C)cc4)O3)c2C)CC1` [Example 6], the pKi is 7.68.

In the case of `Cc1c(NC[C@H]2CCC[C@@H](c3ccccc3)C2)cncc1C(=O)N1CCC(N2CCC(N(C)S(C)(=O)=O)CC2)CC1` [Example 2], the pKi is 7.38.

On to `Cc1c(NCc2ccc(C(C)(C)C)cc2)cncc1C(=O)N1CCC(N2CCC(N(C)S(C)(=O)=O)CC2)CC1` [Example 1], for which the pKi is 6.23.

Take `CO[C@@H]1COCC[C@@H]1NC1CCN(C(=O)c2cncc(NC[C@H]3CCC[C@@H](c4ccc(C)cc4)O3)c2)CC1` [Example 10]: the pKi is 6.97.

For the compound `CO[C@@H]1COCC[C@@H]1NC1CCN(C(=O)c2cncc(NC[C@H]3CCC[C@@H](c4ccc(C)cc4)O3)c2C)CC1` [Example 3], the pKi is 8.22.

In the case of `CO[C@@H]1COCC[C@@H]1NC1CCN(C(=O)c2cncc(Nc3ccc(Cl)c(Cl)c3)c2C)CC1` [Example 6a], the pKi is 7.74.

The values above are taken from patent US8962656B2, “CCR2 antagonists” (Boehringer Ingelheim International GmbH, priority 2010, dated 2015).
